Measured values from patent publication US6875761B2 (Eisai Co., Ltd., priority 1997, dated 2005).
Structures can show the parent of a compound that is named as a salt.

| Structure (SMILES) | melting point |
| --- | --- |
| CCN1CCN(c2nc(-c3ccc(OCCF)cc3)cc3ccccc23)CC1 (as salt: hydrochloride) [Example 45, 1-(4-Ethylpiperazin-1-Yl)-3-[4-(2-Fluoroethoxy)Phenyl]Isoquinoline Dihydrochloride] | 223 to 224 °C (dec.) |
| CCN1CCN(c2nc(-c3ccc4c(c3)OCO4)cc3ccccc23)CC1 (as salt: hydrochloride) [Example 46, 3-(3,4-Methylenedioxyphenyl)-1-(4-Ethylpiperazin-1-Yl)Isoquinoline Hydrochloride] | 223 to 227 °C |
| CCN1CCN(c2nc(-c3ccc(OCCN(C)C)cc3)cc3ccccc23)CC1 (as salt: hydrochloride) [Example 49, 1-(1-Ethylpiperazin-4-Yl)-3-[4-(2-Dimethylaminoethoxy)Phenyl]Isoquinoline] | 153 to 158 °C |
| CCN1CCN(c2nc(-c3ccc(OCC#N)cc3)cc3ccccc23)CC1 (as salt: hydrochloride) [Example 51, 3-(4-Cyanomethoxyphenyl)-1-(4-Ethylpiperazin-1-Yl)Isoquinoline Hydrochloride] | 123 to 125 °C |
| CCN1CCN(c2nc(-c3ccc(OCCCC#N)cc3)cc3ccccc23)CC1 (as salt: hydrochloride) [Example 53, 3-[4-(3-Cyanopropoxy)Phenyl]-1-(4-Ethylpiperazin-1-Yl)Isoquinoline Hydrochloride] | 144 to 146 °C |
| CCN1CCN(c2nc(-c3ccc(OCCn4ccnc4)cc3)cc3ccccc23)CC1 (as salt: hydrochloride) [Example 56, 3-{4-[2-(1-Imidazonyl)Ethoxy]phenyl}-1-(4-Ethylpiperazin-1-Yl)Isoquinoline Hydrochloride] | 160 to 162 °C |
| CCN1CCN(c2nc(-c3ccc(OCCCc4ccncc4)cc3)cc3ccccc23)CC1 (as salt: hydrochloride) [Example 57, 3-{4-[3-(4-Pyridyl)Propoxy]Phenyl}-1-(4-Ethylpiperazin-1-Yl)Isoquinoline Hydrochloride] | 129 to 131 °C |
| CCNC(=O)Oc1ccc(-c2cc3ccccc3c(N3CCN(CC)CC3)n2)cc1 (as salt: hydrochloride) [Example 59] | 146 to 150 °C |
| CCN1CCN(c2nc(-c3ccc(C#N)cc3)cc3ccccc23)CC1 (as salt: hydrochloride) [Example 62, 3-(4-Cyanophenyl)-1-(4-Ethylpiperazin-1-Yl)Isoquinoline Hydrochloride] | 241 °C (dec.) |
| CCCNC(=O)c1ccc(-c2cc3ccccc3c(N3CCN(CC)CC3)n2)cc1 (as salt: hydrochloride) [Example 63, 1-(4-Ethylpiperazin-1-Yl)-3-(4-N-Propylaminocarbonylphenyl)Isoquinoline Hydrochloride] | 149 to 150 °C |
| CCN1CCN(c2nc(-c3ccc(C4=CCC(O)CC4)cc3)cc3ccccc23)CC1 (stereo not shown) (as salt: hydrochloride) [Example 64, 3-[4-(4-Hydroxy-1-Cyclohexen-1-Yl)Phenyl]-1-(4-Ethylpiperazin-1-Yl)Isoquinoline Hydrochloride] | 164 to 166 °C |
| CCN1CCN(c2nc(-c3ccc(N)cc3)cc3ccccc23)CC1 (as salt: hydrochloride) [Example 65, 3-(4-Aminophenyl)-1-(4-Ethylpiperazin-1-Yl)Isoquinoline Hydrochloride] | 267 to 268 °C |
| CCN1CCN(c2nc(-c3ccc(N(C)C)cc3)cc3ccccc23)CC1 (as salt: hydrochloride) [Example 66, 3-[4-(N,N-Dimethylamino)Phenyl]-1-(4-Ethylpiperazin-1-Yl)Isoquinoline Dihydrochloride] | 160 to 162 °C (dec.) |
| CCN1CCN(c2nc(-c3ccc(NC(C)=O)cc3)cc3ccccc23)CC1 (as salt: hydrochloride) [Example 68, 3-(4-Acetamidephenyl)-1-(4-Ethylpiperazin-1-Yl)Isoquinoline Hydrochloride] | 180 to 182 °C |
| CCC(=O)Nc1ccc(-c2cc3ccccc3c(N3CCN(CC)CC3)n2)cc1 (as salt: hydrochloride) [Example 69, 3-(4-Ethylcarbonylaminophenyl)-1-(4-Ethylpiperazin-1-Yl)Isoquinoline Hydrochloride] | 176 to 178 °C |
| CCCC(=O)Nc1ccc(-c2cc3ccccc3c(N3CCN(CC)CC3)n2)cc1 (as salt: hydrochloride) [Example 70, 3-(4-Propylcarbonylaminophenyl]-1-(4-Ethylpiperazin-1-Yl)Isoquinoline Hydrochloride] | 170 to 172 °C |
| CCN1CCN(c2nc(-c3ccc(NS(=O)(=O)CC)cc3)cc3ccccc23)CC1 (as salt: hydrochloride) [Example 71, 3-(4-Ethylsulfonylaminophenyl)-1-(4-Ethylpiperazin-1-Yl)Isoquinoline Hydrochloride] | 198 to 201 °C |

| Structure (SMILES) | melting point |
| --- | --- |
| CCCS(=O)(=O)Nc1ccc(-c2cc3ccccc3c(N3CCN(CC)CC3)n2)cc1 (as salt: hydrochloride) [Example 72, 3-(4-Propylsulfonylaminophenyl)-1-(4-Ethylpiperazin-1-Yl)Isoquinoline Hydrochloride] | 163 to 165 °C |
| CCCCS(=O)(=O)Nc1ccc(-c2cc3ccccc3c(N3CCN(CC)CC3)n2)cc1 (as salt: hydrochloride) [Example 73, 3-(4-Butylsulfonylaminophenyl)-1-(4-Ethylpiperazin-1-Yl)Isoquinoline Hydrochloride] | 160 to 163 °C |
| CCN1CCN(c2nc(-c3ccc(S(=O)(=O)N4CCSCC4)cc3)cc3ccccc23)CC1 (as salt: hydrochloride) [Example 76, 3-[(4-Thiomorpholinyl)Sulfonylphenyl]-1-(4-Ethylpiperazin-1-Yl)Isoquinoline Hydrochloride] | 268 to 270 °C (dec.) |
| CCN1CCN(c2nc(-c3ccc(S(=O)(=O)N4CCS(=O)(=O)CC4)cc3)cc3ccccc23)CC1 (as salt: hydrochloride) [Example 77, 3-[(1,1-Dioxythiomorpholinyl)Sulfonylphenyl]-1-(4-Ethylpiperazin-1-Yl)Isoquinoline Hydrochloride] | 198 to 200 °C |
| CCN1CCN(c2nc(-c3ccc(CCNS(=O)(=O)CC)cc3)cc3ccccc23)CC1 (as salt: hydrochloride) [Example 79, 3-(4-Ethylsulfonylaminoethylphenyl)-1-(4-Ethylpiperazin-1-Yl)Isoquinoline Hydrochloride] | 194 to 197 °C |
| CCNS(=O)(=O)Cc1ccc(-c2cc3ccccc3c(N3CCN(CC)CC3)n2)cc1 (as salt: hydrochloride) [Example 80, 3-(4-Ethylaminosulfonylmethylphenyl)-1-(4-Ethylpiperazin-1-Yl)Isoquinoline Hydrochloride] | 154 to 156 °C |
| CCCNS(=O)(=O)Cc1ccc(-c2cc3ccccc3c(N3CCN(CC)CC3)n2)cc1 (as salt: hydrochloride) [Example 81, 3-(4-Propylaminosulfonylmethylphenyl)-1-(4-Ethylpiperazin-1-Yl)Isoquinoline Hydrochloride] | 194 to 197 °C |
| CCN1CCN(c2nc(-c3ccc(C4CCOCC4)cc3)cc3ccccc23)CC1 (as salt: hydrochloride) [Example 83, 3-[4-(Tetrahydropyran-4-yl)phenyl]-1-(4-ethylpiperazin-1-yl)isoquinoline Hydrochloride] | 148 to 150 °C |
| CCN1CCN(c2nc(-c3ccc(C4=CCOCC4)cc3)cc3ccccc23)CC1 (as salt: hydrochloride) [Example 84, 3-[4-(5,6-Dihydro-2H-pyran-4-yl)phenyl]-1-(4-ethylpiperazin-1-yl)isoquinoline Hydrochloride] | 170 to 172 °C |
| CCC(=O)NCc1ccc(-c2cc3ccccc3c(N3CCN(CC)CC3)n2)cc1 (as salt: hydrochloride) [Example 85, 3-(4-Ethylcarbonylaminomethylphenyl)-1-(4-ethylpiperazin-1-yl)isoquinoline Hydrochloride] | 171 to 174 °C |
| CCCC(=O)NCc1ccc(-c2cc3ccccc3c(N3CCN(CC)CC3)n2)cc1 (as salt: hydrochloride) [Example 86, 3-(4-Propylcarbonylaminomethylphenyl)-1-(4-ethylpiperazin-1-yl)isoquinoline Hydrochloride] | 126 to 128 °C |
| CCNC(=O)Cc1ccc(-c2cc3ccccc3c(N3CCN(CC)CC3)n2)cc1 (as salt: hydrochloride) [Example 87, 3-(4-Ethylaminocarbonylmethylphenyl)-1-(4-ethylpiperazin-1-yl)isoquinoline Hydrochloride] | 143 to 145 °C |
| CCCNC(=O)Cc1ccc(-c2cc3ccccc3c(N3CCN(CC)CC3)n2)cc1 (as salt: hydrochloride) [Example 88, 3-(4-Propylaminocarbonylmethylphenyl)-1-(4-ethylpiperazin-1-yl)isoquinoline Hydrochloride] | 138 to 141 °C |
| CCCCNC(=O)Cc1ccc(-c2cc3ccccc3c(N3CCN(CC)CC3)n2)cc1 (as salt: hydrochloride) [Example 89, 3-(4-Butylaminocarbonylmethylphenyl)-1-(4-ethylpiperazin-1-yl)isoquinoline Hydrochloride] | 133 to 136 °C |
| CCN1CCN(c2nc(-c3ccc(CS(C)(=O)=O)cc3)cc3ccccc23)CC1 (as salt: hydrochloride) [Example 90, 3-(4-Methylsulfonylmethylphenyl)-1-(4-ethylpiperazin-1-yl)isoquinoline Hydrochloride] | 260 to 262 °C |
| CCN1CCN(c2nc(-c3ccc(CNS(=O)(=O)CC)c(Cl)c3)cc3ccccc23)CC1 (as salt: hydrochloride) [Example 91, 3-(3-Chloro-4-ethylsulfonylaminomethylphenyl)-1-(4-ethylpiperazin-1-yl)isoquinoline Hydrochloride] | 278 to 280 °C (dec.) |
| CCCS(=O)(=O)NCc1ccc(-c2cc3ccccc3c(N3CCN(CC)CC3)n2)cc1Cl (as salt: hydrochloride) [Example 92, 3-(3-Chloro-4-propylsulfonylaminomethylphenyl)-1-(4-ethylpiperazin-1-yl)isoquinoline Hydrochloride] | 253 to 255 °C (dec.) |
